Test results published in PubChem BioAssay (NCI).
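Briefly, cells in 96-well plates were exposed to five compound concentrations for 48 h, and endpoints were estimated by linear interpolation. At the TGI there is no net growth.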

Tests used:
Experiment in all cases: growth of human tumour cells (NCI), 48 h
SK-MEL-28 melanoma = tested on: SK-MEL-28 melanoma
M19-MEL melanoma = tested on: M19-MEL melanoma
XF 498 CNS = tested on: XF 498 CNS
UO-31 renal = tested on: UO-31 renal
A498 renal = tested on: A498 renal
SN12C renal = tested on: SN12C renal
SK-MEL-2 melanoma = tested on: SK-MEL-2 melanoma
SNB-19 CNS = tested on: SNB-19 CNS
KM12 colon = tested on: KM12 colon
SW-620 colon = tested on: SW-620 colon
DMS 114 small cell lung = tested on: DMS 114 small cell lung
SK-OV-3 ovarian = tested on: SK-OV-3 ovarian
CCRF-CEM leukemia = tested on: CCRF-CEM leukemia
RXF 393 renal = tested on: RXF 393 renal
SNB-75 CNS = tested on: SNB-75 CNS
HOP-18 NSCLC = tested on: HOP-18 NSCLC
RXF-631 renal = tested on: RXF-631 renal
HOP-92 NSCLC = tested on: HOP-92 NSCLC
OVCAR-5 ovarian = tested on: OVCAR-5 ovarian
M14 melanoma = tested on: M14 melanoma
A549 NSCLC = tested on: A549 NSCLC
NCI-H522 lung = tested on: NCI-H522 lung
NCI-H23 lung = tested on: NCI-H23 lung
NCI-H226 lung = tested on: NCI-H226 lung
NCI-H460 lung = tested on: NCI-H460 lung
HCC-2998 colon = tested on: HCC-2998 colon
SK-MEL-5 melanoma = tested on: SK-MEL-5 melanoma
HOP-62 NSCLC = tested on: HOP-62 NSCLC
DMS 273 small cell lung = tested on: DMS 273 small cell lung
IGROV1 ovarian = tested on: IGROV1 ovarian
TK-10 renal = tested on: TK-10 renal
DLD-1 colon = tested on: DLD-1 colon
SF-268 CNS = tested on: SF-268 CNS
SF-539 CNS = tested on: SF-539 CNS
HCT-15 colon = tested on: HCT-15 colon
ACHN renal = tested on: ACHN renal
SF-295 CNS = tested on: SF-295 CNS
EKVX NSCLC = tested on: EKVX NSCLC
786-0 renal = tested on: 786-0 renal
SNB-78 CNS = tested on: SNB-78 CNS
HT29 colon = tested on: HT29 colon
HL-60(TB) leukemia = tested on: HL-60(TB) leukemia
SR leukemia = tested on: SR leukemia
CAKI-1 renal = tested on: CAKI-1 renal
U251 CNS = tested on: U251 CNS
OVCAR-3 ovarian = tested on: OVCAR-3 ovarian
UACC-62 melanoma = tested on: UACC-62 melanoma
HCT-116 colon = tested on: HCT-116 colon
UACC-257 melanoma = tested on: UACC-257 melanoma
OVCAR-8 ovarian = tested on: OVCAR-8 ovarian
MALME-3M melanoma = tested on: MALME-3M melanoma
LXFL 529 NSCLC = tested on: LXFL 529 NSCLC
COLO 205 colon = tested on: COLO 205 colon
MOLT-4 leukemia = tested on: MOLT-4 leukemia
LOX IMVI melanoma = tested on: LOX IMVI melanoma
KM20L2 colon = tested on: KM20L2 colon
OVCAR-4 ovarian = tested on: OVCAR-4 ovarian
RPMI-8226 leukemia = tested on: RPMI-8226 leukemia
K-562 leukemia = tested on: K-562 leukemia

`COC(=O)C(CCCCCCCC(C(=O)OC)c1nc2n(c1O)C(=N)N=N2)c1nc2n(c1O)C(=N)N=N2` (stereo not given) gave a TGI (SK-MEL-28 melanoma) of over 100 µM, a TGI (M19-MEL melanoma) of over 68.3 µM and a TGI (XF 498 CNS) of over 100 µM. The TGI (UO-31 renal) was over 100 µM, the TGI (A498 renal) was over 100 µM and the TGI (SN12C renal) was over 100 µM. For the same compound, the TGI (SK-MEL-2 melanoma) was over 100 µM, the TGI (SNB-19 CNS) was over 100 µM and the TGI (KM12 colon) was over 100 µM. The TGI (SW-620 colon) was over 100 µM, the TGI (DMS 114 small cell lung) was over 100 µM and the TGI (SK-OV-3 ovarian) was over 100 µM. It also gave a TGI (CCRF-CEM leukemia) of over 100 µM, a TGI (RXF 393 renal) of over 100 µM and a TGI (SNB-75 CNS) of over 85.6 µM. The TGI (HOP-18 NSCLC) was over 100 µM, the TGI (RXF-631 renal) was over 100 µM and the TGI (HOP-92 NSCLC) was over 100 µM. It also gave a TGI (OVCAR-5 ovarian) of over 100 µM, a TGI (M14 melanoma) of over 100 µM and a TGI (A549 NSCLC) of over 100 µM. For the same compound, the TGI (NCI-H522 lung) was over 100 µM, the TGI (NCI-H23 lung) was over 100 µM and the TGI (NCI-H226 lung) was over 100 µM. It also gave a TGI (NCI-H460 lung) of over 100 µM, a TGI (HCC-2998 colon) of over 100 µM and a TGI (SK-MEL-5 melanoma) of over 100 µM. The TGI (HOP-62 NSCLC) was over 100 µM, the TGI (DMS 273 small cell lung) was over 100 µM and the TGI (IGROV1 ovarian) was over 100 µM. For the same compound, the TGI (TK-10 renal) was over 100 µM, the TGI (DLD-1 colon) was over 100 µM and the TGI (SF-268 CNS) was over 100 µM. The TGI (SF-539 CNS) was over 100 µM, the TGI (HCT-15 colon) was over 100 µM and the TGI (ACHN renal) was over 100 µM. It also gave a TGI (SF-295 CNS) of over 100 µM, a TGI (EKVX NSCLC) of over 100 µM and a TGI (786-0 renal) of over 100 µM. For the same compound, the TGI (SNB-78 CNS) was over 100 µM, the TGI (HT29 colon) was over 100 µM and the TGI (HL-60(TB) leukemia) was over 100 µM. For the same compound, the TGI (SR leukemia) was over 100 µM, the TGI (CAKI-1 renal) was over 100 µM and the TGI (U251 CNS) was over 100 µM. For the same compound, the TGI (OVCAR-3 ovarian) was over 100 µM, the TGI (UACC-62 melanoma) was over 100 µM and the TGI (HCT-116 colon) was over 100 µM. The TGI (UACC-257 melanoma) was over 100 µM, the TGI (OVCAR-8 ovarian) was over 100 µM and the TGI (MALME-3M melanoma) was over 100 µM. For the same compound, the TGI (LXFL 529 NSCLC) was over 100 µM, the TGI (COLO 205 colon) was over 100 µM and the TGI (MOLT-4 leukemia) was over 100 µM. The TGI (LOX IMVI melanoma) was over 100 µM, the TGI (KM20L2 colon) was over 100 µM and the TGI (OVCAR-4 ovarian) was over 100 µM. It also gave a TGI (RPMI-8226 leukemia) of over 100 µM.
`CC1NOC(=O)C1N=Nc1ccccc1Br` (stereo not given) showed a TGI (SK-MEL-28 melanoma) of 79.8 µM, a TGI (M19-MEL melanoma) of 35.8 µM and a TGI (XF 498 CNS) of 40 µM. The TGI (UO-31 renal) was 33.1 µM, the TGI (A498 renal) was 51.3 µM and the TGI (SN12C renal) was 59.5 µM. It also gave a TGI (SK-MEL-2 melanoma) of 36.7 µM, a TGI (SNB-19 CNS) of over 100 µM and a TGI (KM12 colon) of 44.8 µM. The TGI (SW-620 colon) was 30.9 µM, the TGI (DMS 114 small cell lung) was 35.7 µM and the TGI (SK-OV-3 ovarian) was 99 µM. The TGI (CCRF-CEM leukemia) was 74.2 µM, the TGI (RXF 393 renal) was 32 µM and the TGI (SNB-75 CNS) was 64 µM. It also gave a TGI (HOP-18 NSCLC) of over 100 µM, a TGI (RXF-631 renal) of over 100 µM and a TGI (HOP-92 NSCLC) of 52.2 µM. For the same compound, the TGI (OVCAR-5 ovarian) was over 100 µM, the TGI (M14 melanoma) was 43.3 µM and the TGI (A549 NSCLC) was 69 µM. The TGI (NCI-H522 lung) was 33.8 µM, the TGI (NCI-H23 lung) was 49.1 µM and the TGI (NCI-H226 lung) was 81.2 µM. For the same compound, the TGI (NCI-H460 lung) was 57.9 µM, the TGI (K-562 leukemia) was 52.8 µM and the TGI (HCC-2998 colon) was over 100 µM. The TGI (SK-MEL-5 melanoma) was 29.1 µM, the TGI (HOP-62 NSCLC) was over 100 µM and the TGI (DMS 273 small cell lung) was over 100 µM. For the same compound, the TGI (IGROV1 ovarian) was over 100 µM, the TGI (TK-10 renal) was 57.4 µM and the TGI (DLD-1 colon) was over 100 µM. For the same compound, the TGI (SF-268 CNS) was 66 µM, the TGI (SF-539 CNS) was 51.2 µM and the TGI (HCT-15 colon) was 84.8 µM. It also gave a TGI (ACHN renal) of over 100 µM, a TGI (SF-295 CNS) of over 100 µM and a TGI (EKVX NSCLC) of 80.3 µM. It also gave a TGI (786-0 renal) of 39.8 µM, a TGI (SNB-78 CNS) of 88.8 µM and a TGI (HT29 colon) of over 100 µM. For the same compound, the TGI (HL-60(TB) leukemia) was 40.8 µM, the TGI (SR leukemia) was 58.2 µM and the TGI (CAKI-1 renal) was 38.4 µM. It also gave a TGI (U251 CNS) of 46.1 µM, a TGI (OVCAR-3 ovarian) of 43.8 µM and a TGI (UACC-62 melanoma) of 48.1 µM. The TGI (HCT-116 colon) was 92.8 µM, the TGI (UACC-257 melanoma) was 44 µM and the TGI (OVCAR-8 ovarian) was 44.9 µM. For the same compound, the TGI (MALME-3M melanoma) was 50.5 µM, the TGI (LXFL 529 NSCLC) was 31.2 µM and the TGI (COLO 205 colon) was 35.7 µM. The TGI (MOLT-4 leukemia) was 67 µM, the TGI (LOX IMVI melanoma) was over 100 µM and the TGI (KM20L2 colon) was over 100 µM. The TGI (OVCAR-4 ovarian) was over 100 µM and the TGI (RPMI-8226 leukemia) was 91.6 µM.
With `CN(C)CCCN1N=Nc2cccc3cccc1c23` the TGI (SK-MEL-28 melanoma) was over 100 µM, the TGI (M19-MEL melanoma) was over 95.3 µM and the TGI (XF 498 CNS) was over 100 µM. For the same compound, the TGI (UO-31 renal) was over 100 µM, the TGI (A498 renal) was over 100 µM and the TGI (SN12C renal) was over 100 µM. For the same compound, the TGI (SK-MEL-2 melanoma) was over 100 µM, the TGI (SNB-19 CNS) was over 100 µM and the TGI (KM12 colon) was over 100 µM. For the same compound, the TGI (SW-620 colon) was over 54.4 µM, the TGI (DMS 114 small cell lung) was over 57.9 µM and the TGI (SK-OV-3 ovarian) was over 100 µM. For the same compound, the TGI (CCRF-CEM leukemia) was over 63.4 µM, the TGI (SNB-75 CNS) was over 100 µM and the TGI (HOP-18 NSCLC) was over 100 µM. It also gave a TGI (RXF-631 renal) of over 100 µM, a TGI (HOP-92 NSCLC) of over 100 µM and a TGI (OVCAR-5 ovarian) of over 100 µM. The TGI (M14 melanoma) was over 63.6 µM, the TGI (A549 NSCLC) was over 100 µM and the TGI (NCI-H522 lung) was over 100 µM. It also gave a TGI (NCI-H23 lung) of over 100 µM, a TGI (NCI-H226 lung) of over 100 µM and a TGI (NCI-H460 lung) of over 89.1 µM. The TGI (K-562 leukemia) was over 65.1 µM, the TGI (HCC-2998 colon) was over 100 µM and the TGI (SK-MEL-5 melanoma) was over 100 µM. It also gave a TGI (HOP-62 NSCLC) of over 100 µM, a TGI (DMS 273 small cell lung) of 39.8 µM and a TGI (IGROV1 ovarian) of over 100 µM. It also gave a TGI (TK-10 renal) of over 100 µM, a TGI (DLD-1 colon) of over 100 µM and a TGI (SF-268 CNS) of over 100 µM. The TGI (SF-539 CNS) was over 100 µM, the TGI (HCT-15 colon) was over 57.5 µM and the TGI (ACHN renal) was over 100 µM. For the same compound, the TGI (SF-295 CNS) was over 100 µM, the TGI (EKVX NSCLC) was over 100 µM and the TGI (786-0 renal) was 38.2 µM. For the same compound, the TGI (SNB-78 CNS) was over 100 µM, the TGI (HT29 colon) was over 100 µM and the TGI (HL-60(TB) leukemia) was over 63.1 µM. The TGI (SR leukemia) was 51.4 µM, the TGI (CAKI-1 renal) was over 100 µM and the TGI (U251 CNS) was over 100 µM. It also gave a TGI (OVCAR-3 ovarian) of over 100 µM, a TGI (UACC-62 melanoma) of over 100 µM and a TGI (HCT-116 colon) of over 64.6 µM. The TGI (UACC-257 melanoma) was over 100 µM, the TGI (OVCAR-8 ovarian) was over 100 µM and the TGI (MALME-3M melanoma) was over 100 µM. The TGI (LXFL 529 NSCLC) was over 87 µM, the TGI (COLO 205 colon) was over 70.2 µM and the TGI (MOLT-4 leukemia) was over 77.3 µM. The TGI (LOX IMVI melanoma) was over 100 µM, the TGI (KM20L2 colon) was over 100 µM and the TGI (OVCAR-4 ovarian) was 58 µM. The TGI (RPMI-8226 leukemia) was over 69.3 µM.
